Data on one compound can be found in patent US6806292B2, “Substituted imide derivatives” (Bayer Aktiengesellschaft, priority 2000, dated 2004).

Data set [1] is described as follows: log P determination by HPLC (EEC directive 79/831 Annex V.A8). The class given is physicochemical. As to conditions: pH 2.3; HPLC gradient method, acetonitrile/0.1% aqueous phosphoric acid. The procedure: [The log P values were determined in accordance with EEC directive 79/831 Annex V.A8 by HPLC (gradient method, acetonitrile/0.1% aqueous phosphoric acid)]

Another data set has as its system Meloidogyne incognita. The experiment in a line: Meloidogyne test. The class given is in vivo. Conditions: 20 ppm, after 2 weeks, lettuce in sand. The procedure:
To produce a suitable preparation of active compound, 1 part by weight of active compound is mixed with the stated amounts of solvent and emulsifier, and the concentrate is diluted with water to the desired concentration.
Containers are filled with sand, solution of active compound, Meloidogyne incognita egg/larvae suspension and lettuce seeds. The lettuce seeds germinate and the plants develop. Galls form on the roots.
After 2 weeks, the nematicidal activity is determined by the gall formation in %. 100% means that no galls have been found; 0% activity means that the number of galls on the treated plants corresponds to that of the untreated control.

Structures are written as SMILES.

By chromatographic logP is commonly meant a lipophilicity value derived from retention on a column. The low end stands for a more hydrophilic compound, the high end for a more lipophilic compound. In turn, `C/C(=N\C#N)NC(C)C1CCCCC1` (stereo not drawn) [Example 1, R-(−)-N-cyano-N′-cyclohexyl-eth-1-yl-ethane-imid-amide] returned a chromatographic logP in data set [1] of 2.19. For the same compound, the “kill (nematicidal activity by gall formation)” value in the data set with Meloidogyne incognita turned out to be 100%.
